Laboratory results as given in patent US20230293560A1, “METHOD FOR MODULATING THE BLADDER MICROBIOME TO IMPROVE BLADDER HEALTH” (Kimberly-Clark Worldwide, Inc., priority 2020, published 2023).
Where “and” joins values, the source holds several entries; their conditions need not be identical. Equal values may be shown once.

Key:
[1] = test system: S. anginosus, KC18-1131-3B, Bladder (Sa-2); assay type: cell-based; conditions: Table 6, prebiotic 2%, one line per replicate
Experimental: (§1) Further testing was conducted to put the prebiotic compounds in competition assay testing, as further described in the test methods section herein. In the competition assay testing, each competition involved testing a single prebiotic compound with the commensal bacteria species of L. crispatus, KC18-1173-1, Bladder (“Lc-3”—Table 2) against the pathogenic bacterial species of S. anginosus, KC18-1131-3B, Bladder (“Sa-2”—Table 2).
(§2) • 1. An in house bacterial agar was created based on MRS agar (Kaplan and Hutkins, 2000) where the glucose is substituted for the prebiotic to be tested (either dextran MW ˜6,000, alpha-cyclodextrin, glucomannan, or pectin), bromocresol purple was included as a pH indicator. • 2. Bacteria were enumerated on each agar and color changes were recorded. Method for Competition Assay (Modified from “In Vitro Evaluation of Nutrients that Selectively Confer a Competitive Advantage to Lactobacilli” Vongsa et al, Beneficial Microbes 2016) • 1. Create 2% w/v stock of prebiotic or positive control (glucose/dextrose) as described above. • 2. From a freezer stock subculture the bacteria twice into De Man, Rogosa and Sharpe (MRS) broth (BD Difco, Becton Dickinson, Franklin Lakes, NJ), 37° C., stationary, anaerobic, overnight. • 3. From the last subculture, plate onto an MRS agar plate for L. crispatus KC18-1173-1 or blood agar for S. anginosus KC18-1131-3B, grow 37° C., stationary, anaerobic, overnight. • 4. Create a bacterial suspension by using a sterile tipped swab to transfer colonies of bacteria into a PBS suspension blank to a 2 MacFarland for both species. • 5. Enumerate the starting culture. • 6. Add 9.8 mL of prebiotic media into a 15 mL conical tube. • 7. Add 100 μL of the diluted bacteria to the media, incubate at 37° C., anaerobic, 48 hours. • 8. Harvest 100 μL from the tube containing the prebiotic and plate onto MRS agar and tryptic soy agar (TSA). • 9. Enumerate the bacteria on the MRS agar (both the L. crispatus and the S. anginosus). Small colonies are counted as S. anginosus and large colonies are counted as L. crispatus. • 10. Enumerate the bacteria on the TSA plate. […] Growth of the bacteria in the negative control (CHL media without prebiotic) was subtracted from the growth in the presence of the prebiotic or formulation.

[2] = test system: L. crispatus, KC18-1173-1, Bladder (Lc-3); test: Competition assay, L. crispatus recovered; assay type: cell-based, Lactobacillus crispatus; conditions: Table 6, prebiotic 2%, one line per replicate
Experimental: as §1, §2

[3] = test system: ratio of L. crispatus/S. anginosus; test: Therapeutic effect protocol (competition assay); assay type: cell-based, Lactobacillus crispatus; Streptococcus anginosus; conditions: Lc-3 vs Sa-2
Description: As used herein, the term “therapeutic effect” refers to the ability of the compositions and formulations of the present disclosure to stimulate the growth of L. crispatus relative S. anginosus measured according to the therapeutic effect protocol described below. The therapeutic effect can be expressed as a ratio of L. crispatus to S. anginosus and is desirably greater than about 100, more preferably greater than about 500 and more desirably greater than about 1,000.
as §1, §2
Colonies of L. crispatus and S. anginosus were tested against in the competition method assay test method as described above. The therapeutic effect was calculated by comparing the colony forming units recovered after the competition assay of both L. crispatus and S. anginosus and calculating the ratio of L. crispatus/S. anginosus. A larger number indicates an increase in L. crispatus and/or a decrease in S. anginosus and a smaller number indicates a decrease in L. crispatus and/or an increase in S. anginosus.

[4] = change vs start, background growth in CHL media subtracted, MRS agar

| SMILES | Sa-2 MRS Δ [1, 4] | Sa-2 TSA Δ ([1]; change vs start, background growth in CHL media subtracted, TSA) | Sa-2 MRS end ([1]; competition Sa-2 vs Lc-3, 48 hours, anaerobic, enumerated on MRS agar) | Sa-2 TSA end ([1]; competition Sa-2 vs Lc-3, 48 hours, enumerated on TSA) | Lc-3 MRS Δ [2, 4] | Lc-3 MRS end ([2]; competition Sa-2 vs Lc-3, 48 hours, enumerated on MRS agar) | Therapeutic Effect (ratio of L. crispatus/S. anginosus) ([3]; Table 6, prebiotic 2%) | outcome of the bacterial competition assay, in words ([3]; Tables 6 and 7) |
| --- | --- | --- | --- | --- | --- | --- | --- | --- |
| CO[C@H]1O[C@H](CO)[C@@H](O)[C@H](O)[C@H]1O [Alpha-Methyl-D-Glucoside] | 0.45 Log CFU/mL and 0.55 Log CFU/mL | 0.62 Log CFU/mL and 0.41 Log CFU/mL | 7.15 Log CFU/mL and 7.40 Log CFU/mL | 7.47 Log CFU/mL and 7.54 Log CFU/mL | 1.39 Log CFU/mL and 0.70 Log CFU/mL | 6.52 Log CFU/mL and 6.78 Log CFU/mL | 1.21E−01 (2×) and 1.74E−01 (2×) |  |
| OC[C@H]1O[C@H](OC[C@H]2OC(O)(CO)[C@@H](O)[C@@H]2O)[C@H](O)[C@@H](O)[C@@H]1O (some centres unmarked) [Palatinose (isomaltulose), isomaltulose] |  |  |  |  |  |  |  | supported the growth of Lactobacillus crispatus over Streptococcus anginosus |
